These results are taken from PubChem BioAssay AID1996.

Converted amounts (≈) assume the structure as drawn.

The conditions of the series: buffer; pH 7.4; 200.0 µM.
By solubility (kinetic) is commonly meant the concentration staying in solution when a stock, usually in DMSO, is diluted into the medium. `CCOC(=O)Cc1nc(-c2cccc(C(F)(F)F)c2)no1` registered a solubility (kinetic) of 7.6 µg/mL (≈ 25.3 µM).
To `Cc1onc(-c2c(F)cccc2Cl)c1C(=O)N=C(N)N1CC(C)OC(C)C1` (stereo not given) belongs 0.8 µg/mL (≈ 2.03 µM); to `CCOc1ccccc1/C=C/c1nc2ccccc2[nH]c1=O`, 1.6 µg/mL (≈ 5.47 µM); to `Cc1ccc(OCC(=O)NCCNC(=O)c2cnccn2)cc1`, 40.9 µg/mL (≈ 130 µM).
Regarding `Cc1cc(C(=O)NCCc2ccc(Cl)cc2)c(C)o1`, the solubility (kinetic) was 31.1 µg/mL (≈ 112 µM). The solubility kinetic values of the last two molecules are within 1.5-fold of each other.
`CCOc1ccc(NC(C)=O)cc1[N+](=O)[O-]` gave a solubility (kinetic) greater than 33.6 µg/mL.
To `CC(=O)Oc1ccc2nc(-c3ccc(Br)o3)oc(=O)c2c1` belongs 4.2 µg/mL (≈ 12 µM); to `O=C(COC(=O)c1cccc(F)c1)NC(=O)NC1CCCC1`, 41.4 µg/mL (≈ 134 µM).
With `CCC(=O)NC1(C(F)(F)F)C(=O)Nc2c1c(=O)[nH]c(=O)n2CC(C)C` (stereo not given), the solubility (kinetic) amounted to 54 µg/mL (≈ 149 µM).
`Cc1ccccc1C(=O)NNC(=O)c1cccn1C` yielded a kinetic solubility greater than 38.6 µg/mL.
To `Cc1ccc(N2C(=O)C(Cl)=C(N3CCCCCC3)C2=O)c(C)c1` belongs 4.5 µg/mL (≈ 13.5 µM).
Molecule `Cc1cc(NC(=O)Cc2ccsc2)ccc1Br` gave a solubility (kinetic) of 4.5 µg/mL (≈ 14.5 µM).
With `N/C(=N\C(=S)Nc1ccccc1)c1ccccc1`, the kinetic solubility is greater than 38.3 µg/mL.
Molecule `Cc1cc(C)cc(NC(=O)CN2CCN(c3ccccn3)CC2)c1` returned a solubility (kinetic) of 2.8 µg/mL (≈ 8.63 µM).
Under `O=C(CNC(=O)c1ccc2ccccc2c1)NCc1ccccc1F` stands 7.8 µg/mL (≈ 23.2 µM); under `CCC(C)[C@H](NC(=O)N1CCCCC1)C(=O)OC` (stereo not given in full), greater than 38.5 µg/mL; under `CSc1nsc(SCC(=O)Nc2cccc(C(=O)O)c2)n1`, greater than 51.2 µg/mL.
To `COc1ccc(/C=C/C(=O)NCCCN2CCCCCC2)cc1` belongs greater than 47.5 µg/mL; to `COc1cc(CN2CCSCC2)c([N+](=O)[O-])cc1OC`, 35.2 µg/mL (≈ 118 µM).
Under `C#CCOC(=O)Nc1cnccc1C(F)(F)F` stands greater than 36.6 µg/mL; under `CCOC(=O)c1c(C)noc1-c1ccc(Br)o1`, less than 0.6 µg/mL.
Molecule `Cc1ccc(OCC(=O)NCCO)c(Br)c1` showed a solubility (kinetic) greater than 43.2 µg/mL.
To `COc1ccc(OCCOCCN2CCN(C)CC2)cc1.O=C(O)C(=O)O` belongs 54.2 µg/mL; to `COc1ccc(C2N(c3ccccc3)C(=O)C2(F)F)cc1OC` (stereo not given), 36.2 µg/mL (≈ 113 µM).
`O=C(NCc1cccnc1)/C(=C/c1ccc([N+](=O)[O-])cc1)NC(=O)c1ccccc1` yielded a solubility (kinetic) of 10.2 µg/mL (≈ 25.3 µM).
Under `Cc1ccc(N2C(S)=C(C#N)C(=O)NC2c2ccco2)cc1` (stereo not given) stands greater than 46.7 µg/mL; under `Cc1noc(C)c1CN1C(=O)c2cccc([N+](=O)[O-])c2C1=O`, greater than 45.2 µg/mL; under `O=C(NCC1CCCO1)c1ccc(COc2ccccc2)o1` (stereo not given), greater than 45.2 µg/mL.
Under `Cc1oc(S(=O)(=O)N2CCCCC2)cc1NC(=O)Nc1ccc(F)cc1` stands 5.5 µg/mL (≈ 14.4 µM).
To `O=C(CC1CCCCC1)NCc1ccc(F)cc1` belongs 20.7 µg/mL (≈ 83 µM); to `CN1C(=O)N(C)C(c2cccc([N+](=O)[O-])c2)C2=C1CCCC2=O` (stereo not given), greater than 47.3 µg/mL; to `COc1ccc(NC(=O)CN(C)C(=O)C2=COCCO2)cc1`, greater than 45.9 µg/mL.
The molecule `O=C(Nc1ccccn1)c1cc(-c2cccc(Cl)c2)nc2ccccc12` had a kinetic solubility of less than 0.3 µg/mL.
`Cc1ccc(NC(=O)CN2C(=O)C3CC=C(Cl)CC3C2=O)cc1` (stereo not given): the solubility (kinetic) was greater than 49.9 µg/mL.
Under `O=C(NCc1ccccc1Br)c1ccncc1` stands 39.9 µg/mL (≈ 137 µM).
`Nc1nc2cc(S(=O)(=O)N3CCOCC3)ccc2o1` registered a kinetic solubility greater than 42.5 µg/mL.
Under `COc1ccc(CCC(=O)Nc2ncc(C)s2)cc1` stands 4.1 µg/mL (≈ 14.8 µM); under `COC(=O)NC1c2ccccc2Oc2ccccc21`, 0.7 µg/mL (≈ 2.74 µM).
Under `Nc1c(C(=O)N2CCOCC2)sc2nc3c(cc12)CCC3` stands greater than 45.5 µg/mL; under `CCn1c(=O)c(C(=O)Nc2ccccc2)c(O)c2ccccc21`, less than 0.3 µg/mL.
On to `COc1ccc(/C=C2\SC(N)=NC2=O)cc1Br`, for which the solubility (kinetic) turned out to be 5.3 µg/mL (≈ 16.9 µM).
Under `COc1cc2c(cc1OC)CN(CC(=O)NC(=O)NC(C)(C)C)CC2` stands 45.9 µg/mL (≈ 131 µM); under `COc1cc2c(cc1OC)CN(C(=O)c1sccc1C)CC2`, 45.8 µg/mL (≈ 144 µM).
For `COc1ccc2cc(/C=N/O)c(Cl)nc2c1`, the solubility (kinetic) is 0.9 µg/mL (≈ 3.8 µM).
To `Nc1nc2ccc(Cc3ccncc3)cc2s1` belongs greater than 36.2 µg/mL; to `CCOC(=O)C1=C(COC(=O)/C=C/c2ccco2)NC(=O)NC1C` (stereo not given), 23.1 µg/mL (≈ 69.1 µM); to `CC(NC(=O)COC(=O)C12CC3CC(CC(Br)(C3)C1)C2)c1ccccc1` (stereo not given), 20.6 µg/mL (≈ 49 µM).
To `Cc1ccc(NC(=O)CSc2nc3ccccc3c(=O)[nH]2)cc1[N+](=O)[O-]` belongs 3.6 µg/mL (≈ 9.72 µM); to `Cc1ccc(/C(N)=N/OC(=O)CCCc2ccccc2)cc1`, 2 µg/mL (≈ 6.75 µM).
Consider `Oc1ccccc1CNc1cccc2cccnc12`, for which the kinetic solubility came out at 19.3 µg/mL (≈ 77.1 µM).
Turning to `CN1CCCN(C(=O)c2ccc(Br)s2)CC1`, the kinetic solubility was greater than 45.5 µg/mL.
The molecule `Cc1nc2ccccc2c2c1C(=O)NC2=O` registered a solubility (kinetic) greater than 31.8 µg/mL.
Under `CCC(=O)N(Cc1cc2cc(OC)ccc2[nH]c1=O)c1ccc(C)cc1` stands 3 µg/mL (≈ 8.56 µM); under `O=C(Nc1c[nH]c(=O)[nH]c1=O)c1ccccc1Cl`, greater than 39.8 µg/mL.
Under `COc1ccc(N2C(=O)CSC2c2cccc(F)c2)cc1` (stereo not given) stands 29.2 µg/mL (≈ 96.3 µM); under `Cc1ccc(NS(=O)(=O)c2cc(N)ccc2Cl)c(C)c1`, 43.5 µg/mL (≈ 140 µM).
Under `CC(=O)N1C(=O)NC(c2ccccc2)=C([N+](=O)[O-])C1c1ccccc1` (stereo not given) stands 43.2 µg/mL (≈ 128 µM); under `CC(C)(C)C(=O)CSc1ncccn1`, 24.3 µg/mL (≈ 116 µM); under `N#CC(C#N)=C1NC(N)=C(C#N)C(c2ccccc2)=C1C#N`, greater than 42.6 µg/mL.
Molecule `Cc1ccnc(NC(=O)c2ccc(Cl)s2)c1` came in with a kinetic solubility of 16.1 µg/mL (≈ 63.7 µM).
Under `CCCCCCC(=O)N(O)C1CC(=O)N(c2ccc(F)cc2)C1=O` (stereo not given) stands greater than 50.5 µg/mL.
To `CCCn1nc(C(=O)NC2CC2)c2ccccc2c1=O` belongs greater than 40.7 µg/mL; to `CCN(Cc1nc(-c2ccccc2)no1)C(=O)c1ccc2c(c1)OCO2`, 36.5 µg/mL (≈ 104 µM); to `O=C(/C=C/c1cccc(F)c1)Nc1ccc(S(=O)(=O)N2CCOCC2)cc1`, 1 µg/mL (≈ 2.56 µM).
To `CNCc1cc(Cl)cc(OC)c1OC(C)C.Cl` belongs greater than 42 µg/mL.
`Cc1nnc(SCC(=O)Nc2ccccc2)n(N)c1=O` had a kinetic solubility greater than 43.7 µg/mL.
As to `C=CCOc1ccccc1CNCc1ccc(F)cc1.Cl`, the solubility (kinetic) was greater than 46.2 µg/mL.
On to `COc1ccc(/C=N/NC(=O)c2ccc3nc[nH]c3c2)cc1`, for which the solubility (kinetic) was greater than 44.1 µg/mL.
To `O=C(CSc1nc(C2CC2)nc2ccccc12)Nc1ccccc1` belongs less than 0.2 µg/mL.
As to `CC(C)OP(=O)(O)NC(=O)c1ccccc1`, the solubility (kinetic) was greater than 36.5 µg/mL.
To `CCOC(=S)SCC(=O)Nc1ncc(C)s1` belongs 40.1 µg/mL (≈ 145 µM); to `CCOC(=O)C(C(=O)N(C)Cc1ccccc1)C1CCCCC1` (stereo not given), 41.8 µg/mL (≈ 132 µM); to `Cc1cccn2c(=O)c(C=O)c(N3CCC4(CC3)OCCO4)nc12`, greater than 49.4 µg/mL.
To `COc1ccc(C(=O)O/N=C(/c2cccs2)C(C)(C)C)cc1` belongs 2.4 µg/mL (≈ 7.56 µM).
The molecule `C[C@H](NC(N)=O)C(=O)OCC(=O)NCc1cccs1` had a solubility (kinetic) greater than 42.8 µg/mL.
Under `CC1(C)Cc2nc(-c3ccccc3)nc(SCC(O)CO)c2CO1` (stereo not given) stands 51.7 µg/mL (≈ 149 µM); under `Cc1cc(Cl)ccc1Oc1ncnc2onc(C)c12`, 1.9 µg/mL (≈ 6.89 µM).
To `CCN(CC)C(=O)CSc1nnc(SC(C)C(=O)NC2CC2)s1` (stereo not given) belongs greater than 56.2 µg/mL; to `CC(C)NCc1nnc(-c2ccc(Cl)cc2)o1`, greater than 37.8 µg/mL; to `Cc1cc(C(=O)COC(=O)c2ccc(F)cc2)c(C)n1C`, 1.2 µg/mL (≈ 4.15 µM).
In turn, `CC(=O)N(C1=NCCCS1)c1ccccc1Cl` registered a solubility (kinetic) greater than 40.3 µg/mL.
`Cc1cc(=O)[nH]c(SCc2ccccc2)n1` yielded a solubility (kinetic) greater than 34.8 µg/mL.
Under `Cc1cc(C(=O)OCC(=O)NCc2ccccc2)c(C)o1` stands greater than 43.1 µg/mL; under `COc1ccc(C(=O)CC(=O)C(=O)Nc2ccc(Cl)cc2)cc1`, 5.5 µg/mL (≈ 16.6 µM).
To `COc1ccc2nc(SCC(=O)NCCc3ccccc3)[nH]c2c1` belongs greater than 51.2 µg/mL; to `O=C(NC(=S)NC1CCCCC1)c1ccc(F)cc1`, 2.1 µg/mL (≈ 7.49 µM); to `Cc1ccc(CCNC(=O)C2CCCN(S(C)(=O)=O)C2)cc1` (stereo not given), greater than 48.7 µg/mL.
For `Nc1nc(Nc2ccccc2F)nc(N2CCOCC2)c1[N+](=O)[O-]`, the kinetic solubility worked out at 8.2 µg/mL (≈ 24.5 µM).
`c1ccc(Oc2cccc(Oc3ccccc3)n2)cc1` showed a solubility (kinetic) of less than 0.6 µg/mL.
Consider `O=C(COC(=O)/C=C/c1cccc(F)c1)Nc1cccc(S(=O)(=O)NC2=NCCCCC2)c1`, for which the solubility (kinetic) stood at 18.3 µg/mL (≈ 38.6 µM).
For the molecule `CC(C)CN1CCNC(=O)C1CC(=O)N(C)CC1CCOCC1` (stereo not given), the solubility (kinetic) stood at 45.7 µg/mL (≈ 140 µM). This solubility kinetic is about 2.5-fold higher than that of the molecule before.
Under `OCCNc1nc(-c2ccccc2)nc2c1oc1ccccc12` stands 0.3 µg/mL (≈ 0.983 µM); under `CSc1ccc(NC(=O)NCc2ccccc2)cc1`, 1.4 µg/mL (≈ 5.14 µM).
To `O=C(NCCOc1ccccc1)C1=CC=CN2CCS(=O)(=O)N=C12` belongs greater than 52.1 µg/mL; to `CC(C)(C)C(=O)Nc1ccc(N2CCN(S(C)(=O)=O)CC2)cc1`, 17.6 µg/mL (≈ 51.8 µM).
Under `CC1=C(C(=O)OCc2ccccc2)C(c2ccccc2)NC(=O)N1` (stereo not given) stands 2.8 µg/mL (≈ 8.69 µM); under `COc1ccc(NC(=O)CN2C(=O)NC3(CCCc4ccccc43)C2=O)c(OC)c1` (stereo not given), greater than 61.4 µg/mL.
`COc1cccc(C(C)NC(=O)Cc2cccs2)c1` (stereo not given) returned a solubility (kinetic) greater than 41.3 µg/mL.
`Cc1cnc(SCc2cnc(C)nc2N)nc1` yielded a solubility (kinetic) greater than 37.1 µg/mL.
For the molecule `S=C(NCCc1ccc(Cl)cc1)NC1CCCCC1`, the solubility (kinetic) is 4 µg/mL (≈ 13.5 µM).
To `COCCn1cnnc1SCC(=O)Nc1cc(C)on1` belongs greater than 44.6 µg/mL; to `COc1ccccc1OCCn1c(C)c(C=O)c2ccccc21`, 1 µg/mL (≈ 3.23 µM).
On to `COC(=O)Cc1c(C)nc(SCc2ccccc2)[nH]c1=O`, for which the kinetic solubility amounted to 16.4 µg/mL (≈ 53.9 µM). This solubility kinetic lies about 16-fold higher than the previous one.
To `CC(=O)c1cn(Cc2ccccc2C#N)c2ccccc12` belongs 7 µg/mL (≈ 25.5 µM); to `Cl.Clc1cc(I)cc(Cl)c1NC1=NCCN1`, greater than 58.9 µg/mL.
